System: 171881-019-R-J1-PDC tumor spheroids, viability
Test: Anticancer human tumor 171881-019-R-J1-PDC patient-derived invasive breast carcinoma cell line growth inhibition [GQUAD]
Conditions: spheroids with HUVEC and MSC; for IC50: curve of first compound; for viability, T/C: stronger effect = lower value
Summary of the method: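 Multi-cell-type spheroids of tumor cells with HUVEC and mesenchymal stem cells, treated with drug combinations. Concentrations descend in half-log steps from near clinical Cmax, or from 10 microM where Cmax is unknown; viability read-out.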

[1] = second compound 0.0316 µM, first compound 0.0316 µM
[2] = second compound 0.0316 µM, first compound 0.1 µM
[3] = second compound 0.0316 µM, first compound 0.316 µM
[4] = second compound 0.0316 µM, first compound 1 µM
[5] = second compound 0.0316 µM, first compound 3.16 µM
[6] = second compound 0.0316 µM, first compound 10 µM
[7] = second compound 0.1 µM, first compound 0.0316 µM
[8] = second compound 0.1 µM, first compound 0.1 µM
[9] = second compound 0.1 µM, first compound 0.316 µM
[10] = second compound 0.1 µM, first compound 1 µM
[11] = second compound 0.1 µM, first compound 3.16 µM
[12] = second compound 0.1 µM, first compound 10 µM
[13] = second compound 0.316 µM, first compound 0.0316 µM
[14] = second compound 0.316 µM, first compound 0.1 µM
[15] = second compound 0.316 µM, first compound 0.316 µM
[16] = second compound 0.316 µM, first compound 1 µM
[17] = second compound 0.316 µM, first compound 3.16 µM
[18] = second compound 0.316 µM, first compound 10 µM
[19] = second compound 1 µM, first compound 0.0316 µM
[20] = second compound 1 µM, first compound 0.1 µM
[21] = second compound 1 µM, first compound 0.316 µM
[22] = second compound 1 µM, first compound 1 µM
[23] = second compound 1 µM, first compound 3.16 µM
[24] = second compound 1 µM, first compound 10 µM
[25] = second compound 3.16 µM, first compound 0.0316 µM
[26] = second compound 3.16 µM, first compound 0.1 µM
[27] = second compound 3.16 µM, first compound 0.316 µM
[28] = second compound 3.16 µM, first compound 1 µM
[29] = second compound 3.16 µM, first compound 3.16 µM
[30] = second compound 3.16 µM, first compound 10 µM
[31] = second compound 10 µM, first compound 0.0316 µM
[32] = second compound 10 µM, first compound 0.1 µM
[33] = second compound 10 µM, first compound 0.316 µM
[34] = second compound 10 µM, first compound 1 µM
[35] = second compound 10 µM, first compound 3.16 µM
[36] = second compound 10 µM, first compound 10 µM
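Note: spheroids exposed to compounds for 7 days.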
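Throughout, for viability, T/C: 100% = DMSO vehicle control viability.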

COc1ncnc(C2CC2)c1-c1ncc2cnn(Cc3ccc(-c4nc(C(F)(F)F)cn4C(C)C)cc3)c2n1 + Cc1cnc(CNC(=O)c2c(=O)c3ccc(N4CCCN(C)CC4)nc3n3c2sc2ccccc23)cn1
IC50 (second compound 0.0316 µM): > 10000 nM | IC50 (second compound 0.1 µM): > 10000 nM | IC50 (second compound 0.316 µM): > 10000 nM | IC50 (second compound 1 µM): > 10000 nM | IC50 (second compound 3.16 µM): > 10000 nM | IC50 (second compound 10 µM): > 10000 nM | viability, T/C [1]: 93.6% | viability, T/C [2]: 85.3% | viability, T/C [3]: 82.4% | viability, T/C [4]: 85.4% | viability, T/C [5]: 92% | viability, T/C [6]: 87% | viability, T/C [7]: 76.2% | viability, T/C [8]: 83% | viability, T/C [9]: 70% | viability, T/C [10]: 81.7% | viability, T/C [11]: 73.9% | viability, T/C [12]: 71.2% | viability, T/C [13]: 72.1% | viability, T/C [14]: 74.3% | viability, T/C [15]: 69.5% | viability, T/C [16]: 65.8% | viability, T/C [17]: 71.1% | viability, T/C [18]: 63.3% | viability, T/C [19]: 69% | viability, T/C [20]: 61.3% | viability, T/C [21]: 62.3% | viability, T/C [22]: 62.6% | viability, T/C [23]: 63.5% | viability, T/C [24]: 66.2% | viability, T/C [25]: 67.3% | viability, T/C [26]: 57.6% | viability, T/C [27]: 61.2% | viability, T/C [28]: 56.4% | viability, T/C [29]: 62% | viability, T/C [30]: 66.2% | viability, T/C [31]: 53.4% | viability, T/C [32]: 56.9% | viability, T/C [33]: 54.2% | viability, T/C [34]: 57.3% | viability, T/C [35]: 63.1% | viability, T/C [36]: 56.3%

CCCS(=O)(=O)Nc1ccc(F)c(C(=O)c2c[nH]c3ncc(-c4ccc(Cl)cc4)cc23)c1F + Cc1[nH]c2ccc(F)cc2c1-c1nc2c3cccnc3c3ncccc3c2[nH]1
IC50 (second compound 0.0316 µM): 9320 nM | IC50 (second compound 0.1 µM): 8860 nM | IC50 (second compound 0.316 µM): 7730 nM | IC50 (second compound 1 µM): 5620 nM | IC50 (second compound 3.16 µM): < 31.6 nM | IC50 (second compound 10 µM): 31.6 nM | viability, T/C [1]: 104% | viability, T/C [2]: 106% | viability, T/C [3]: 102% | viability, T/C [4]: 121% | viability, T/C [5]: 99% | viability, T/C [6]: 46.7% | viability, T/C [7]: 105% | viability, T/C [8]: 106% | viability, T/C [9]: 105% | viability, T/C [10]: 107% | viability, T/C [11]: 110% | viability, T/C [12]: 43.3% | viability, T/C [13]: 90.2% | viability, T/C [14]: 77.2% | viability, T/C [15]: 98.2% | viability, T/C [16]: 93.2% | viability, T/C [17]: 95.8% | viability, T/C [18]: 38.1% | viability, T/C [19]: 73.7% | viability, T/C [20]: 60.8% | viability, T/C [21]: 82.4% | viability, T/C [22]: 80.7% | viability, T/C [23]: 77.4% | viability, T/C [24]: 25% | viability, T/C [25]: 7.61% | viability, T/C [26]: 8.32% | viability, T/C [27]: 6.95% | viability, T/C [28]: 5.17% | viability, T/C [29]: 12.6% | viability, T/C [30]: 8.93% | viability, T/C [31]: 46.9% | viability, T/C [32]: 45.5% | viability, T/C [33]: 44.4% | viability, T/C [34]: 55.2% | viability, T/C [35]: 51.3% | viability, T/C [36]: 18.5%

C#Cc1c(F)ccc2cc(O)cc(-c3ncc4c(N5CC6CCC(C5)N6)nc(OCC56CCCN5CC(F)C6)nc4c3F)c12 (stereo not drawn) + CN(C)c1ccc(Nc2c3ccc(NC(=O)CCN4CCCC4)cc3nc3cc(NC(=O)CCN4CCCC4)ccc23)cc1
IC50 (second compound 0.0316 µM): 509 nM | IC50 (second compound 0.1 µM): 362 nM | IC50 (second compound 0.316 µM): < 31.6 nM | IC50 (second compound 1 µM): < 31.6 nM | IC50 (second compound 3.16 µM): < 31.6 nM | IC50 (second compound 10 µM): < 31.6 nM | viability, T/C [1]: 91.8% | viability, T/C [2]: 77.2% | viability, T/C [3]: 53.9% | viability, T/C [4]: 41.5% | viability, T/C [5]: 25.2% | viability, T/C [6]: 11.2% | viability, T/C [7]: 87.8% | viability, T/C [8]: 68.1% | viability, T/C [9]: 52% | viability, T/C [10]: 35% | viability, T/C [11]: 23.7% | viability, T/C [12]: 8.76% | viability, T/C [13]: 43.1% | viability, T/C [14]: 33.4% | viability, T/C [15]: 24.5% | viability, T/C [16]: 15.3% | viability, T/C [17]: 11.9% | viability, T/C [18]: 0.81% | viability, T/C [19]: 3.77% | viability, T/C [20]: 3.04% | viability, T/C [21]: 3.15% | viability, T/C [22]: 1.14% | viability, T/C [23]: 1% | viability, T/C [24]: 0.07% | viability, T/C [25]: 0.2% | viability, T/C [26]: 0.29% | viability, T/C [27]: 0.47% | viability, T/C [28]: 0.22% | viability, T/C [29]: 0.17% | viability, T/C [30]: 0.1% | viability, T/C [31]: 0.11% | viability, T/C [32]: 0.1% | viability, T/C [33]: 0.13% | viability, T/C [34]: 0.26% | viability, T/C [35]: 0.26% | viability, T/C [36]: 0.13%

COc1ccc([C@@H](O)c2cc(-c3ncnc4cc(N5CCOCC5)ccc34)c(F)cc2Cl)nn1 + Cc1[nH]c2ccc(F)cc2c1-c1nc2c3cccnc3c3ncccc3c2[nH]1
IC50 (second compound 0.0316 µM): 740 nM | IC50 (second compound 0.1 µM): 756 nM | IC50 (second compound 0.316 µM): 573 nM | IC50 (second compound 1 µM): 429 nM | IC50 (second compound 3.16 µM): < 31.6 nM | IC50 (second compound 10 µM): < 31.6 nM | viability, T/C [1]: 107% | viability, T/C [2]: 81.3% | viability, T/C [3]: 74.5% | viability, T/C [4]: 45% | viability, T/C [5]: 14.7% | viability, T/C [6]: 5.38% | viability, T/C [7]: 87.2% | viability, T/C [8]: 84.5% | viability, T/C [9]: 70.1% | viability, T/C [10]: 44.6% | viability, T/C [11]: 14% | viability, T/C [12]: 5.6% | viability, T/C [13]: 85.6% | viability, T/C [14]: 90.2% | viability, T/C [15]: 56.5% | viability, T/C [16]: 41% | viability, T/C [17]: 15.5% | viability, T/C [18]: 5.95% | viability, T/C [19]: 94.2% | viability, T/C [20]: 67% | viability, T/C [21]: 64.4% | viability, T/C [22]: 32.3% | viability, T/C [23]: 12.2% | viability, T/C [24]: 6.67% | viability, T/C [25]: 28.9% | viability, T/C [26]: 15.3% | viability, T/C [27]: 14.5% | viability, T/C [28]: 9.07% | viability, T/C [29]: 8.31% | viability, T/C [30]: 4.66% | viability, T/C [31]: 37.8% | viability, T/C [32]: 45.4% | viability, T/C [33]: 26.6% | viability, T/C [34]: 17.3% | viability, T/C [35]: 9.52% | viability, T/C [36]: 5.39%
